In ChEMBL document CHEMBL3351292, “Structure-Based Design and Synthesis of Potent Cyclic Peptides Inhibiting the YAP-TEAD Protein-Protein Interaction” (ACS Med Chem Lett, 2014):
Where a SMILES comes first, the peptide text is derived from it. Bridges are numbered along the chain shown (N, C = ends). [ ]: non-standard residue; d: D form. hCys = N[C@@H](CCS)C(=O)O

Columns and labels:
[1] = biological target: Transcriptional coactivator YAP1/Transcriptional enhancer factor TEF-1 (Homo sapiens, UniProt P28347); experiment: Inhibition of YAP/ GST-TEAD1 (unknown origin) interaction by surface plasmon resonance assay; type: protein assay
[2] = biological target: Transcriptional coactivator YAP1/Transcriptional enhancer factor TEF-1 (Homo sapiens) (UniProt P46937+P28347); experiment: Inhibition of YAP/ GST-TEAD1 (unknown origin) interaction at 50 uM by surface plasmon resonance assay; type: protein assay
Transcriptional coactivator YAP1/Transcriptional enhancer factor TEF-1 (Homo sapiens), sequence (P28347 whole entry, looked up): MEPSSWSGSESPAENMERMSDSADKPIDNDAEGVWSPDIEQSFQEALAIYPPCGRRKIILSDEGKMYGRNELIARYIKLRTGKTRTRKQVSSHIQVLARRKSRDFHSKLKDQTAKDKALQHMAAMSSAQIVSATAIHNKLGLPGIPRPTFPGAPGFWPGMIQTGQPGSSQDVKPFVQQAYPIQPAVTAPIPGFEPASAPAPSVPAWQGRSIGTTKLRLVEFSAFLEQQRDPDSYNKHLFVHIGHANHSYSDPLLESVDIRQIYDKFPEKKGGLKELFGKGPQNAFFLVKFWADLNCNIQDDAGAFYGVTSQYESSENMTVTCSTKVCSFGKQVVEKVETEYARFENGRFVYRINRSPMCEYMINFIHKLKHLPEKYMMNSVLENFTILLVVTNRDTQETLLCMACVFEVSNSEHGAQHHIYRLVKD
Transcriptional coactivator YAP1/Transcriptional enhancer factor TEF-1 (Homo sapiens), sequence (P46937 whole entry, looked up): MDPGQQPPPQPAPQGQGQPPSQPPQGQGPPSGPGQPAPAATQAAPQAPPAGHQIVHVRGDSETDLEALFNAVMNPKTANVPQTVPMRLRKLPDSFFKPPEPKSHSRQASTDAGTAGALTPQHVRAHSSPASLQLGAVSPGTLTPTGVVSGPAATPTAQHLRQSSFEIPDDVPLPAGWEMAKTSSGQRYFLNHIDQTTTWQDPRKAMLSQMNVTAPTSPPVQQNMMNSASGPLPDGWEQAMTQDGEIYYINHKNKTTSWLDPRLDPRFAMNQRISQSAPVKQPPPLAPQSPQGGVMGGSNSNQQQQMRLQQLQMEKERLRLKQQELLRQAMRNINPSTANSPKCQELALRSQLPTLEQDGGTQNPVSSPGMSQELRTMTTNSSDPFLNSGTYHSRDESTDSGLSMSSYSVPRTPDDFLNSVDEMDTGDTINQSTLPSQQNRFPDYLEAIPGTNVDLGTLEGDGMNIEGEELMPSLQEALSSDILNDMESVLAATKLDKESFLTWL

Transcriptional coactivator YAP1/Transcriptional enhancer factor TEF-1, sequence (P46937 whole entry): as the sequence (P46937 whole entry, looked up) above
Transcriptional coactivator YAP1/Transcriptional enhancer factor TEF-1, sequence (P28347 whole entry): as the sequence (P28347 whole entry, looked up) above

IC50 [1] [µM]	inhibition [2] [%]	SMILES
6.9	–	CSCC[C@H](NC(=O)[C@@H]1CCCN1C(=O)[C@@H](NC(C)=O)C(C)C)C(=O)N[C@H]1CCSSC[C@@H](C(=O)N[C@@H](CCCCN)C(=O)N2CCC[C@H]2C(=O)N2CCC[C@H]2C(=O)N[C@@H](CCC(=O)O)C(N)=O)NC(=O)[C@H](Cc2ccccc2)NC(=O)[C@H](CO)NC(=O)[C@H](CC(=O)O)NC(=O)[C@@H]2CCCN2C(=O)[C@H](CC(C)C)NC(=O)[C@H](CCCCN)NC(=O)[C@H](CCCNC(=N)N)NC(=O)[C@H](CC(C)C)NC1=O
1.5	–	CSCC[C@H](NC(=O)[C@@H]1CCCN1C(=O)[C@@H](NC(C)=O)C(C)C)C(=O)N[C@H]1CCSSC[C@@H](C(=O)N[C@@H](CCCCN)C(=O)N2CCC[C@H]2C(=O)N2CCC[C@H]2C(=O)N[C@@H](CCC(=O)O)C(N)=O)NC(=O)[C@H](Cc2ccccc2)NC(=O)[C@H](CO)NC(=O)[C@H](C)NC(=O)[C@@H]2CCCN2C(=O)[C@H](CC(C)C)NC(=O)[C@H](CCCCN)NC(=O)[C@H](CCCNC(=N)N)NC(=O)[C@H](CC(C)C)NC1=O
25	83	CSCC[C@H](NC(=O)[C@@H]1CCCN1C(=O)[C@@H](NC(=O)[C@@H](NC(=O)[C@H](CCC(N)=O)NC(=O)[C@@H]1CCCN1C(C)=O)[C@@H](C)O)C(C)C)C(=O)N[C@@H](CCCNC(=N)N)C(=O)N[C@@H](CC(C)C)C(=O)N[C@@H](CCCNC(=N)N)C(=O)N[C@@H](CCCCN)C(=O)N[C@@H](CC(C)C)C(=O)N1CCC[C@H]1C(=O)N[C@@H](C)C(=O)N[C@@H](CO)C(=O)N[C@@H](Cc1ccccc1)C(=O)N[C@@H](Cc1ccccc1)C(=O)N[C@@H](CCCCN)C(=O)N1CCC[C@H]1C(=O)N1CCC[C@H]1C(=O)N[C@@H](CCC(=O)O)C(N)=O (Ac-PQTVPMRLRKLPASFFKPPE-NH2)
43	71	CSCC[C@H](NC(=O)[C@@H]1CCCN1C(=O)[C@@H](NC(=O)[C@@H](NC(=O)[C@H](CCC(N)=O)NC(=O)[C@@H]1CCCN1C(C)=O)[C@@H](C)O)C(C)C)C(=O)N[C@@H](CCCNC(=N)N)C(=O)N[C@@H](CC(C)C)C(=O)N[C@@H](CCCNC(=N)N)C(=O)N[C@@H](CCCCN)C(=O)N[C@@H](CC(C)C)C(=O)N1CCC[C@H]1C(=O)N[C@@H](CC(=O)O)C(=O)N[C@@H](CO)C(=O)N[C@@H](Cc1ccccc1)C(=O)N[C@@H](Cc1ccccc1)C(=O)N[C@@H](CCCCN)C(=O)N1CCC[C@H]1C(=O)N1CCC[C@H]1C(=O)N[C@@H](C)C(N)=O (Ac-PQTVPMRLRKLPDSFFKPPA-NH2)
> 100	–	CSCC[C@H](NC(=O)[C@@H]1CCCN1C(=O)[C@@H](NC(C)=O)C(C)C)C(=O)N[C@H]1CSSC[C@@H](C(=O)N[C@@H](CCCCN)C(=O)N2CCC[C@H]2C(=O)N2CCC[C@H]2C(=O)N[C@@H](CCC(=O)O)C(N)=O)NC(=O)[C@H](Cc2ccccc2)NC(=O)[C@H](CO)NC(=O)[C@H](CC(=O)O)NC(=O)[C@@H]2CCCN2C(=O)[C@H](CC(C)C)NC(=O)[C@H](CCCCN)NC(=O)[C@H](CCCNC(=N)N)NC(=O)[C@H](CC(C)C)NC1=O (Ac-VPMCLRKLPDSFCKPPE-NH2; disulfide 4-13)
85	–	CSCC[C@H](NC(=O)[C@@H]1CCCN1C(=O)[C@@H](NC(C)=O)C(C)C)C(=O)N[C@H]1CSSCC[C@@H](C(=O)N[C@@H](CCCCN)C(=O)N2CCC[C@H]2C(=O)N2CCC[C@H]2C(=O)N[C@@H](CCC(=O)O)C(N)=O)NC(=O)[C@H](Cc2ccccc2)NC(=O)[C@H](CO)NC(=O)[C@H](CC(=O)O)NC(=O)[C@@H]2CCCN2C(=O)[C@H](CC(C)C)NC(=O)[C@H](CCCCN)NC(=O)[C@H](CCCNC(=N)N)NC(=O)[C@H](CC(C)C)NC1=O (Ac-VPMCLRKLPDSF[hCys]KPPE-NH2; disulfide 4-13)
> 100	–	CSCC[C@H](NC(=O)[C@@H]1CCCN1C(=O)[C@@H](NC(C)=O)C(C)C)C(=O)N[C@H]1CCSSCC[C@@H](C(=O)N[C@@H](CCCCN)C(=O)N2CCC[C@H]2C(=O)N2CCC[C@H]2C(=O)N[C@@H](CCC(=O)O)C(N)=O)NC(=O)[C@H](Cc2ccccc2)NC(=O)[C@H](CO)NC(=O)[C@H](CC(=O)O)NC(=O)[C@@H]2CCCN2C(=O)[C@H](CC(C)C)NC(=O)[C@H](CCCCN)NC(=O)[C@H](CCCNC(=N)N)NC(=O)[C@H](CC(C)C)NC1=O (Ac-VPM[hCys]LRKLPDSF[hCys]KPPE-NH2; disulfide 4-13)
